Values quoted from earlier work, collected in patent US20130115640A1, “ACTH for Treatment of Kidney Disease” (priority 2011, published 2013).

Tested on: TGF-β
Details: Losartan 50 mg, 4 weeks, type II diabetes and microalbuminuria

Compound: CCCCc1nc(Cl)c(CO)n1Cc1ccc(-c2ccccc2-c2nn[nH]n2)cc1 [Losartan]
- plasma TGF-β levels: not altered
- urinary TGF-β levels: significantly reduced
